# Experimental data taken from patent publication US8389527B2, “Substituted imidazopyridazines useful as kinase inhibitors” (Bristol-Myers Squibb Company, priority 2008, dated 2013).
# How the values were obtained:
# recombinant CK2A2 = molecular target: T1, recombinant CK2A2 (Homo sapiens, UniProt P19784); test: CK2 kinase assay (CK2A2), [γ-33P]ATP filter-binding; format: biochemical; details: recombinant CK2A2 5 nM, ATP 5 μM, 10 μM peptide substrate, 30° C. 1 h
# T1 construct: purchased Upstate Biotechnology
# Method: (§1) The effectiveness of compounds of the present invention as inhibitors of protein kinases can be readily tested by assays known to those skilled in the art. For example, in vitro protein kinase assays may be conducted with a relevant purified protein kinase and an appropriate synthetic substrate to determine the inhibitory activities of the compounds. […] Reaction mixtures were incubated at 30° C. for 1 h, and reaction products were captured by binding to phosphocellulose (P81) filter plates. Incorporation of radioactive phosphate into the peptide substrate was determined by liquid scintillation counting. The potency of compounds in inhibiting CK2 is expressed as IC50, defined as the concentrations of compounds required to inhibit the enzymatic activity by 50%.
# HCT116 = test: Cell proliferation inhibition assay (MTT, CellTiter96); format: cell-based; details: Homo sapiens, HCT-116; HCT116 cells, 72 h with compound, MTT readout
# Method: B. Cell Proliferation Inhibition Assay
# Compounds were evaluated for their ability to inhibit cell proliferation, using an assay that measures mitochondrial metabolic activity, that is directly correlated with cell numbers. Cells were plated at 2000 cells/well in 96-well plates and were cultured for 24 h in RPMI-1640 supplemented with 2% fetal bovine serum, before test compounds were added. Compounds were diluted in culture medium such that the final concentration of dimethyl sulfoxide never exceeded 1%. Following the addition of compounds, the cells were cultured for an additional 72 h before cell viability was determined by measuring the conversion of 3-(4,5-dimethylthiazol-2-yl)-2,5-diphenyltetrazolium bromide (MTT) dye using the CellTiter96 kit (Promega).
# recombinant CK2A1 = molecular target: T2, recombinant CK2A1 (Homo sapiens, UniProt P68400); test: CK2 kinase assay (CK2A1), [γ-33P]ATP filter-binding; format: biochemical; details: recombinant CK2A1 10 nM, ATP 25 μM, 10 μM peptide substrate, 30° C. 1 h
# T2 construct: purchased Invitrogen
# Method: as §1
# T2 sequence (P68400 whole entry): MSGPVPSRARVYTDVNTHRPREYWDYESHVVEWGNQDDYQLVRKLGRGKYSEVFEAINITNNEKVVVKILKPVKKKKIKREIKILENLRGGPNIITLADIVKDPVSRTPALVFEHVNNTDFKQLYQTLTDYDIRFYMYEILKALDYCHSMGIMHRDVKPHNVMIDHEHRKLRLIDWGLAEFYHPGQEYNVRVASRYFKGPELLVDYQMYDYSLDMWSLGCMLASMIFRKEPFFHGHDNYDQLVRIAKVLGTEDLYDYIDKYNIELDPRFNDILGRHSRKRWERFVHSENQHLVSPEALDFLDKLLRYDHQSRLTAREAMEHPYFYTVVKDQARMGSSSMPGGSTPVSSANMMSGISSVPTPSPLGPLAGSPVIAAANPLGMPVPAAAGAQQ
# T1 sequence (P19784 whole entry): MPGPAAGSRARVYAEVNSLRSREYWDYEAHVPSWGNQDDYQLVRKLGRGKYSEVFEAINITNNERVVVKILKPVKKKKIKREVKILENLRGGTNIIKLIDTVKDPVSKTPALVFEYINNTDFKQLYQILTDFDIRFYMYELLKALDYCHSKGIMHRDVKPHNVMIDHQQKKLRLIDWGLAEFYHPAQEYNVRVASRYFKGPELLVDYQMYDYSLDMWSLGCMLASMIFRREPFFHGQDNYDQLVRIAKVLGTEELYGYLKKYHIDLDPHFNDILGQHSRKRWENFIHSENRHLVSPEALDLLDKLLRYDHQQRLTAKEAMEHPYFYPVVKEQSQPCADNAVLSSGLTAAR
SMILES,IC50 (recombinant CK2A2) [nM],IC50 (HCT116) [nM],IC50 (recombinant CK2A1) [nM]
"N[C@H]1CC[C@H](Nc2cc(Nc3ncccc3O)c3ncc(C(=O)Nc4ccncc4)n3n2)CC1 [Example 378, 6-((trans-4-aminocyclohexyl)amino)-8-((3-hydroxy-2-pyridinyl)amino)-N-4-pyridinyl-imidazo[1,2-b]pyridazine-3-carboxamide]",290,> 1000,205
"N[C@H]1CC[C@H](Nc2cc(NC3CC3)c3ncc(C(=O)Nc4ccncc4F)n3n2)CC1 [Example 468, 6-((trans-4-aminocyclohexyl)amino)-8-(cyclopropylamino)-N-(3-fluoro-4-pyridinyl)imidazo [1,2-b]pyridazine-3-carboxamide]",3,90,7
"N[C@H]1CC[C@H](Nc2cc(N[C@H]3C[C@@H](CO)C3)c3ncc(C(=O)Nc4ccncc4F)n3n2)CC1 [Example 476, 6-((trans-4-aminocyclohexyl)amino)-N-(3-fluoro-4-pyridinyl)-8-((cis-3-(hydroxymethyl)cyclobutyl)amino) imidazo[l,2-b]pyridazine-3-carboxamide]",46,2310,43
"CN(C)CCOc1ccc(Nc2cc(N[C@H]3CC[C@H](N)CC3)nn3c(C(=O)Nc4ccncc4F)cnc23)cc1 [Example 501, 6-((trans-4-aminocyclohexyl)amino)-8-((4-(2-(dimethylamino)ethoxy)phenyl)amino)-N-(3-fluoro-4-pyridinyl)imidazo[1,2-b]pyridazine-3-carboxamide]",87,450,234
"O=C(Nc1ccnc(Cl)c1)c1cnc2c(NC3CC3)cc(N[C@H]3CC[C@H](N(CCO)CCO)CC3)nn12 [Example 534, 6-((trans-4-(bis(2-hydroxyethyl)amino)cyclohexyl)amino)-N-(2-chloro-4-pyridinyl)-8-(cyclopropylamino)imidazo [1,2-b]pyridazine-3-carboxamide]",145,1610,559
"Cc1cc(Nc2cc(N[C@H]3CC[C@H](N)CC3)nn3c(C(=O)Nc4ccnc(Cl)c4)cnc23)nn1C [Example 542, 6-((trans-4-aminocyclohexyl)amino)-N-(2-chloro-4-pyridinyl)-8-((1,5-dimethyl-1H-pyrazol-3-yl)amino)imidazo[1,2-b]pyridazine-3-carboxamide]",18,290,71
"O=C(Nc1ccnc(Cl)c1)c1cnc2c(Nc3ccon3)cc(N[C@H]3CC[C@H](O)CC3)nn12 [Example 549, N-(2-chloro-4-pyridinyl)-6-((trans-4-hydroxycyclohexyl)amino)-8-(3-isoxazolylamino) imidazo[1,2-b]pyridazine-3-carboxamide]",0.03,20,26.3
"Cc1cc(Nc2cc(N[C@H]3CC[C@H](O)CC3)nn3c(C(=O)Nc4ccnc(Cl)c4)cnc23)nn1C [Example 553, N-(2-chloro-4-pyridinyl)-8-((1,5-dimethyl-1H-pyrazol-3-yl)amino)-6-((trans-4-hydroxycyclohexyl)amino)imidazo[1,2-b]pyridazine-3-carboxamide]",2.1,40,19.6

# Further lines, results first:
IC50 (recombinant CK2A2) [nM],IC50 (HCT116) [nM],IC50 (recombinant CK2A1) [nM],SMILES
1.5,500,62.6,"CCN(C)C(=O)N[C@H]1CC[C@H](Nc2cc(NC3CC3)c3ncc(C(=O)Nc4ccnc(Cl)c4)n3n2)CC1 [Example 278, N-(2-chloro-4-pyridinyl)-8-(cyclopropylamino)-6-((trans-4-((ethyl(methyl)carbamoyl)amino)cyclohexyl)amino)imidazo[1,2-b]pyridazine-3-carboxamide]"
5,220,26,"O=C(Nc1ccncc1F)c1cnc2c(NC3CC3)cc(NC3CCCC3)nn12 [Example 333, 6-(cyclopentylamino)-8-(cyclopropylamino)-N-(3-fluoro-4-pyridinyl)imidazo[1,2-b] pyridazine-3-carboxamide]"
6,300,15,"N[C@H]1CC[C@H](Nc2cc(NC3CC3)c3ncc(C(=O)Nc4ccncc4)n3n2)CC1 [Example 390, 6-((trans-4-aminocyclohexyl)amino)-8-(cyclopropylamino)-N-4-pyridinylimidazo [1,2-b]pyridazine-3-carboxamide]"
47,540,115,"N[C@H]1CC[C@H](Nc2cc(Nc3ccc(CN4CCOCC4)cc3)c3ncc(C(=O)Nc4ccncc4)n3n2)CC1 [Example 414, 6-((trans-4-aminocyclohexyl)amino)-8-((4-(4-morpholinylmethyl)phenyl)amino)-N-4-pyridinylimidazo[1,2-b]pyridazine-3-carboxamide]"
5,50,19,"N[C@H]1CC[C@H](Nc2cc(NC3CCC3)c3ncc(C(=O)Nc4ccncc4F)n3n2)CC1 [Example 469, 6-((trans-4-aminocyclohexyl)amino)-8-(cyclobutylamino)-N-(3-fluoro-4-pyridinyl)imidazo [1,2-b]pyridazine-3-carboxamide]"
34,> 2500,121,"N[C@H]1CC[C@H](Nc2cc(Nc3cccc(N4CCNCC4)n3)c3ncc(C(=O)Nc4ccncc4F)n3n2)CC1 [Example 481, 6-((trans-4-aminocyclohexyl)amino)-N-(3-fluoro-4-pyridinyl)-8-((6-(1-piperazinyl)-2-pyridinyl)amino)imidazo [1,2-b]pyridazine-3-carboxamide]"
42,170,58,"N[C@H]1CC[C@H](Nc2cc(Nc3ccccc3)c3ncc(C(=O)Nc4ccncn4)n3n2)CC1 [Example 518, 6-((trans-4-aminocyclohexyl)amino)-8-anilino-N-4-pyrimidinylimidazo[1,2-b] pyridazine-3-carboxamide]"
4,1150,21,"O=C(Nc1ccncc1F)c1cnc2c(NC3CC3)cc(N[C@H]3CC[C@H](NCC(O)CO)CC3)nn12 (stereo partly drawn) [Example 524, 8-(cyclopropylamino)-6-((trans-4-((2,3-dihydroxypropyl)amino)cyclohexyl)amino)-N-(3-fluoro-4-pyridinyl)imidazo [1,2-b]pyridazine-3-carboxamide]"
61,> 2500,153,"NCCN[C@H]1CC[C@H](Nc2cc(NC3CC3)c3ncc(C(=O)Nc4ccnc(F)c4)n3n2)CC1 [Example 526, 6-((trans-4-((2-aminoethyl)amino)cyclohexyl)amino)-8-(cyclopropylamino)-N-(2-fluoro-4-pyridinyl)imidazo [1,2-b]pyridazine-3-carboxamide]"
3,260,28,"O=C(Nc1ccnc(Cl)c1)c1cnc2c(NC3CC3)cc(N[C@H]3CC[C@H](NCCO)CC3)nn12 [Example 531, N-(2-chloro-4-pyridinyl)-8-(cyclopropylamino)-6-((trans-4-((2-hydroxyethyl)amino)cyclohexyl)amino) imidazo[1,2-b]pyridazine-3-carboxamide]"
42,340,331,"CC(C)CN[C@H]1CC[C@H](Nc2cc(NC3CC3)c3ncc(C(=O)Nc4ccnc(Cl)c4)n3n2)CC1 [Example 538, N-(2-chloro-4-pyridinyl)-8-(cyclopropylamino)-6-((trans-4-(isobutylamino)cyclohexyl)amino)imidazo [1,2-b]pyridazine-3-carboxamide]"
